Test results as given in patent US11980667B2, “Short TAT oligomers for drug delivery” (The Trustees of Columbia University in the City of New York, priority 2017, dated 2024).

Legend:
[1] = Physiological changes during IA-TCH and IV delivery; format: in vivo, rat
Excerpt: Comparison of […] and IV TAT delivery. Fisher 344 rats weighing about 200 g were utilized. During initial surgery under ketamine-xylazine isoflurane anesthesia 5×10^5 9 L cells were implanted 3 mm below the skull and 2-3 mm posterior and lateral to the bregma through a 1 mm craniotomy. […] The animals were assigned separately to IV and IA-TCH groups. On the day of drug delivery, animals were sedated with isoflurane and injected with ketamine/xylazine. The tail vein was cannulated for intravenous access. Under aseptic precautions, a tracheostomy and carotid cannulation were performed. Anesthesia was maintained by mechanical ventilation with isoflurane (1.8-2.2%). Thereafter animals were turned prone on a stereotactic frame. The skull was exposed and the region of tumor implantation was shaved to transparency. A laser Doppler probe was implanted on the skull with the aid of a plastic holder to assess cerebral/tumor blood flow. Rectal temperature, pulse pleth (volume), pulse oxygen saturation, EKG, expired and inspired gas composition, brain and skin blood flow with lase Doppler were continuously monitored.
Transient cerebral hypoperfusion and fluorescein-labeled TAT monomer injection. IA injections were made during TCH by the following method. Reduction of blood flow was achieved by bolus IV injections of adenosine (2 mg) and esmolol (2 mg), and cold saline (1.5 mL at 4° C.). Typically such an intervention decreases cerebral blood flow to about 20% of the baseline. The heart rate response varies from sinus bradycardia to a sinus pause. However, physiological parameters rapidly recover within 3-5 minutes. […] For each animal, a test IA injection was done prior to the onset of hypotension to ensure delivery of the desired injection volume and the injection sequence was resumed after bolus IV injections of hypotensive drugs.
Physiological parameters. Key parameters included inspired and expired gas composition, laser Doppler skin and brain/tumor blood flow, EKG for heart rate, pleth pulse, oxygen saturation, and rectal temperature which were continuously monitored. Data were analyzed at four time points: baseline, at the time of IA injection, 5 minutes after the start of injection, and at the end of the experiment. […] Immediately after sacrifice, brain tissue was harvested for imaging. All physiological data was recorded at 200 Hz by a Mac Lab data collection system.

[2] = Delivery of cell-penetrating peptides to the brain of healthy rats, confocal microscopy; format: in vivo, rat
Excerpt: Animal preparation, IA-TCH injection, and brain tumor implantation. Animal protocols were approved by the Columbia University Institutional Animal Care and Use Committee (IACUC). Studies were primarily conducted on Sprague-Dawley rats weighing 250 to 300 grams. In the case of electron multiplying charge-coupled device imaging studies, Fisher 344 rats implanted with 9L brain tumors were utilized. The surgical preparation including anesthesia, carotid and femoral cannulation, cerebral blood flow and vital sign monitoring, as well as in vivo fluorescence imaging have been previously described in detail.
IA injections of cell-penetrating peptides (CPPs) were made during TCH as 65 μL pulses totaling 1 ml in volume. TCH was produced by a bolus injection of adenosine, esmolol, and cold saline. Animals were allowed to hemodynamically recover from TCH and euthanized 10 minutes after injection. Uptake of CPPs was assessed with a fluorescence camera and with confocal fluorescence microscopy.
Cell-penetrating peptides. Two experimental cell-penetrating peptides were tested: 1. octaarginine, also called (Arg)8 or R-8 (SEQ ID NO: 13) and 2. trans-activator of transcription or TAT (Lifetien Inc.). The 14 amino acid peptide sequence for TAT is […]COOH (SEQ ID NO: 11). Both cell-penetrating peptides (CPPs) were labeled with fluorescein so that their distribution could be identified by multispectral imaging and with fluorescence microscopy of the frozen brain sections.
Fluorescence and electron multiplying charge-coupled device imaging.

9L glioma = experiment: Quantitative tumor TAT-FITC uptake, electron multiplying charge-coupled device imaging; format: in vivo, rat
Excerpt: In addition to the standard fluorescence imaging described above, we assess tumor uptake of TAT-FITC using a higher resolution, quantitative tool utilizing an electron-multiplying charge coupled device. To accomplish this we used two warm white light LEDs to evenly illuminate the tissue samples through a narrow (10 nm) band pass filter with 470 nm central transmission (Thor Labs, New Jersey). An Evolve 520 high sensitivity electron multiplying charge-coupled device (Photometeric Inc. Tucson, AZ) was utilized while using a 520 nm narrow band pass filter. Each sample was normalized to the background and to the injected drug concentrations. Four 2 mm sections were interrogated for each specimen on either side of the plane of tumor implantation. The data was corrected for ambient light, tissue independent background fluorescence, and contralateral hemisphere tissue fluorescence.

9L glioma tumors = conditions: four arrest cycles IA-TCH; single arrest from historical controls
Protocol: Multiple Arrest Study. 9L glioma tumors were implanted into five rats. 14 days post-implantation, the rats were anesthetized and prepared for the injections. Blood flow reduction was achieved by bolus IV injection of adenosine and esmolol that were flushed with cold saline. Four arrest cycles were used to deliver fluorescein-conjugated TAT monomer via intra-arterial injection with a 5 minute recovery period between each arrest. Animals were sacrificed 15 minutes after injection. Brain tissues were harvested an imaged using a multi-spectral imaging system using a photon counted cooled fluorescence camera. A 470 nm light was used for excitation while a 530 nm filter was used for imaging the emitted light.

N=C(N)NCCC[C@H](NC(=O)CNC(=O)c1ccc2c(c1)C(=O)OC21c2ccc(O)cc2Oc2cc(O)ccc21)C(=O)N[C@@H](CCCCN)C(=O)N[C@@H](CCCCN)C(=O)N[C@@H](CCCNC(=N)N)C(=O)N[C@@H](CCCNC(=N)N)C(=O)N[C@@H](CCC(N)=O)C(=O)N[C@@H](CCCNC(=N)N)C(=O)N[C@@H](CCCNC(=N)N)C(=O)N[C@@H](CCCNC(=N)N)C(=O)N1CCC[C@H]1C(=O)N1CCC[C@H]1C(=O)N[C@@H](CCC(N)=O)C(=O)N[C@@H](CCC(N)=O)C(=O)O [fluorescein-labeled TAT monomer, 5-FAM-GRKKRRQRRR PPQQ-COOH]
CBF ([1]; IA-TCH, 5 min): 90 ± 32 % Δbase
ETCO2 ([1]; IA-TCH, 5 min): 71 ± 17 % Δbase
HR ([1]; IA-TCH, 5 min): 273 ± 59 BMP
Isoflurane ([1]; IA-TCH, 5 min): 1.8 ± 0.8 ET %
SaO2 ([1]; IA-TCH, 5 min): 95%
Sk · BF ([1]; IA-TCH, 5 min): 104 ± 38 % Δbase
Temp ([1]; IA-TCH, 5 min): 36.6 ± 1.1 °C
CBF ([1]; IA-TCH, Base): 100 ± 0 % Δbase
ETCO2 ([1]; IA-TCH, Base): 100 ± 0 % Δbase
HR ([1]; IA-TCH, Base): 289 ± 19 BMP
Isoflurane ([1]; IA-TCH, Base): 2.2 ± 0.2 ET %
SaO2 ([1]; IA-TCH, Base): 98 ± 2%
Sk · BF ([1]; IA-TCH, Base): 100 ± 0 % Δbase
Temp ([1]; IA-TCH, Base): 37.1 ± 1.3 °C
CBF ([1]; IA-TCH, End): 81 ± 13 % Δbase
ETCO2 ([1]; IA-TCH, End): 92 ± 27 % Δbase
HR ([1]; IA-TCH, End): 310 ± 11 BMP
Isoflurane ([1]; IA-TCH, End): 2.2 ± 0.4 ET %
Sk · BF ([1]; IA-TCH, End): 92 ± 16 % Δbase
Temp ([1]; IA-TCH, End): 36.9 ± 1.1 °C
CBF ([1]; IA-TCH, Injection): 29 ± 26 % Δbase
ETCO2 ([1]; IA-TCH, Injection): 54 ± 50 % Δbase
HR ([1]; IA-TCH, Injection): 63 ± 41 BMP
Isoflurane ([1]; IA-TCH, Injection): 0.8 ± 0.9 ET %
SaO2 ([1]; IA-TCH, Injection): 92 ± 11 %
Sk · BF ([1]; IA-TCH, Injection): 18 ± 10 % Δbase
Temp ([1]; IA-TCH, Injection): 36.6 ± 1.3 °C
CBF ([1]; IV, 5 min): 73 ± 13b % Δbase
ETCO2 ([1]; IV, 5 min): 85 ± 37 % Δbase
HR ([1]; IV, 5 min): 267 ± 68 BMP
Isoflurane ([1]; IV, 5 min): 2.1 ± 0.2 ET %
SaO2 ([1]; IV, 5 min): 97 ± 4%
Sk · BF ([1]; IV, 5 min): 106 ± 28 % Δbase
Temp ([1]; IV, 5 min): 36.1 ± 0.9 °C
CBF ([1]; IV, Base): 100 ± 0 % Δbase
ETCO2 ([1]; IV, Base): 100 ± 0 % Δbase
HR ([1]; IV, Base): 267 ± 17 BMP
Isoflurane ([1]; IV, Base): 2.2 ± 0.3 ET %
SaO2 ([1]; IV, Base): 100 ± 5%
Sk · BF ([1]; IV, Base): 100 ± 0 % Δbase
Temp ([1]; IV, Base): 35.9 ± 0.9 °C
CBF ([1]; IV, End): 73 ± 12b % Δbase
ETCO2 ([1]; IV, End): 86 ± 14 % Δbase
HR ([1]; IV, End): 283 ± 10 BMP
Isoflurane ([1]; IV, End): 2.1 ± 0.3 ET %
SaO2 ([1]; IV, End): 99 ± 2%
Sk · BF ([1]; IV, End): 116 ± 30 % Δbase
Temp ([1]; IV, End): 36.5 ± 1.0 °C
CBF ([1]; IV, Injection): 122 ± 21 % Δbase
ETCO2 ([1]; IV, Injection): 75 ± 39 % Δbase
HR ([1]; IV, Injection): 274 ± 31 BMP
Isoflurane ([1]; IV, Injection): 0.4 ± 0.1 ET %
SaO2 ([1]; IV, Injection): 97 ± 4%
Sk · BF ([1]; IV, Injection): 144 ± 50a,# % Δbase
Temp ([1]; IV, Injection): 35.9 ± 0.9 °C
Deposition by hemisphere ([2]; IA-TCH carotid injection, confocal microscopy): detectable deposition preferentially to the hemisphere ipsilateral to carotid injection
Parenchymal deposition versus dose ([2]; IA-TCH, dose range 0.25-1 mg): dose dependent increase
Distribution in the brain (semi-quantitative) ([2]; IA-TCH, confocal microscopy): more diffuse deposition within the white matter
Distribution in the brain ([2]; IV delivery of 0.5 mg, FIG. 17 F): diffuse uptake of TAT in and beyond the blood vessels was seen preferentially in the white matter
Tumor TAT deposition compared to the corresponding contralateral region (9L glioma; IA-TCH, N=8): 11.7 fold
Fluorescence in the tumor compared to the ipsilateral non-tumor regions (9L glioma; six animals, FIG. 19E): 7.4 ×
Fluorescence in the tumor compared to the tumor site on the contralateral hemisphere (9L glioma; six animals, FIG. 19E): 10.5 ×
Deposition, multiple arrest compared to single-arrest (9L glioma tumors): increases the amount of TAT deposition but also increases non-specific deposition
